Each structure is given as a SMILES string.

Data on 14 compounds can be found in ChEMBL document CHEMBL1154453, “Synthesis and aldose reductase inhibitory activity of some new chromonyl-2,4-thiazolidinediones” (Eur J Med Chem, 2008).

Test [1] concerns the target Aldo-keto reductase family 1 member B1 (Rattus norvegicus) (UniProt P07943). Nature of the test: (§1) Inhibition of aldose reductase in Albino rat kidney assessed as decrease in NADPH concentration by spectrophotometrically.
Test [2] has as its target Aldo-keto reductase family 1 member B1 (Rattus norvegicus, UniProt P07943). Described as §1.

Consider `O=C1NC(=O)/C(=C\c2coc3ccccc3c2=O)S1`, for which the inhibition in test [1] was 42.4%. Same read-out and setting: then `CCOC(=O)CN1C(=O)S/C(=C/c2coc3ccc(C(C)C)cc3c2=O)C1=O`, with 9.46%.

Regarding `O=C(O)CN1C(=O)S/C(=C/c2coc3ccc([N+](=O)[O-])cc3c2=O)C1=O`, the IC50 in test [2] was determined as 261 nM. In addition, the inhibition in test [1] is 82.4%. As to `CC(C)c1ccc2occ(/C=C3/SC(=O)N(CC(=O)O)C3=O)c(=O)c2c1`, the IC50 in test [2] stood at 522 nM. Moreover, the inhibition in test [1] is 77.3%. As for `O=C(O)CN1C(=O)S/C(=C/c2coc3ccccc3c2=O)C1=O`, the inhibition in test [1] is 49.4%. For `Cc1ccc2occ(/C=C3/SC(=O)NC3=O)c(=O)c2c1`, the IC50 in test [2] came to 944 nM. Also, the inhibition in test [1] stood at 52.7%. Take `Cc1cc(C)c2occ(/C=C3/SC(=O)NC3=O)c(=O)c2c1`: the inhibition in test [1] stood at 49.7%. As for `Cc1ccc2occ(/C=C3/SC(=O)N(CC(=O)O)C3=O)c(=O)c2c1`, the IC50 in test [2] amounted to 805 nM. Besides, the inhibition in test [1] was 61.2%. For the compound `O=C1NC(=O)/C(=C\c2coc3ccc([N+](=O)[O-])cc3c2=O)S1`, the inhibition in test [1] is 46.7%.

Turning to `CCOC(=O)CN1C(=O)S/C(=C/c2coc3ccc(C)cc3c2=O)C1=O`, the inhibition in test [1] stood at 0%. `CC(C)c1ccc2occ(/C=C3/SC(=O)NC3=O)c(=O)c2c1`: the IC50 in test [2] was 955 nM. Further, the inhibition in test [1] came out at 50.8%. With `CCOC(=O)CN1C(=O)S/C(=C/c2coc3c(C)cc(C)cc3c2=O)C1=O`, the inhibition in test [1] stood at 0%. As for `CCOC(=O)CN1C(=O)S/C(=C/c2coc3ccccc3c2=O)C1=O`, the inhibition in test [1] was determined as 8.18%.

As for `Cc1cc(C)c2occ(/C=C3/SC(=O)N(CC(=O)O)C3=O)c(=O)c2c1`, the IC50 in test [2] came to 678 nM. Besides, in test [1], the inhibition turned out to be 68.6%.

As a reminder, the inhibition is the drop in the measured response relative to a control, in per cent. As a reminder, the IC50 is the concentration that gives 50% inhibition.
